Laboratory results reported in ChEMBL document CHEMBL3885881, “DrugMatrix”.

Organism: Rattus norvegicus
Experiment: DrugMatrix - Regimen: Daily Repeat
Assay type: toxicity, organism-based, Sprague-Dawley
Set-up: regimen Daily Repeat, gender Male, age 6-8 weeks
Conditions: in vivo, po, route oral GAVAGE, vehicle 100 % WATER; for ABSOLUTE BASOPHIL / ABSOLUTE EOSINOPHIL / ABSOLUTE LYMPHOCYTE / ABSOLUTE MONOCYTE / ABSOLUTE SEGMENTED NEUTROPHIL / BASOPHIL / EOSINOPHIL / ERYTHROCYTE COUNT / HEMATOCRIT / HEMOGLOBIN / LEUKOCYTE COUNT / LYMPHOCYTE / MEAN CORPUSCULAR HEMOGLOBIN / MEAN CORPUSCULAR HEMOGLOBIN CONCENTRATION / MEAN CORPUSCULAR VOLUME / MONOCYTE / NEUTROPHIL / NUCLEATED RED BLOOD CELLS / PLATELET COUNT: tissue Blood; for ALANINE AMINOTRANSFERASE / ALBUMIN / ALKALINE PHOSPHATASE / ASPARTATE AMINOTRANSFERASE / BLOOD UREA NITROGEN / CARBON DIOXIDE / CHLORIDE / CHOLESTEROL / CREATINE PHOSPHOKINASE / CREATININE / GLUCOSE / LACTATE DEHYDROGENASE / LIPASE / PHOSPHORUS / POTASSIUM / SODIUM / TOTAL BILIRUBIN / TOTAL PROTEIN / URIC ACID: tissue Plasma
[1] = 19.5 mg/kg, 120 h, dose level Low, time 5 day
[2] = 75 mg/kg, 72 h, dose level High, time 3 day
[3] = 75 mg/kg, 120 h, dose level High, time 5 day

CN1CCC[C@H]1c1cccnc1 [NICOTINE]
ABSOLUTE BASOPHIL [1]: 0 CELLS/uL | ABSOLUTE EOSINOPHIL [1]: 37.67 CELLS/uL | ABSOLUTE LYMPHOCYTE [1]: 10299.33 CELLS/uL | ABSOLUTE MONOCYTE [1]: 0 CELLS/uL | ABSOLUTE SEGMENTED NEUTROPHIL [1]: 1096.33 CELLS/uL | BASOPHIL [1]: 0% | EOSINOPHIL [1]: 0.33% | ERYTHROCYTE COUNT [1]: 5.67 x10E6/uL | HEMATOCRIT [1]: 35.63% | HEMOGLOBIN [1]: 14.17 G/DL | LEUKOCYTE COUNT [1]: 11.43 x10E3/uL | LYMPHOCYTE [1]: 90.33% | MEAN CORPUSCULAR HEMOGLOBIN [1]: 25 pg | MEAN CORPUSCULAR HEMOGLOBIN CONCENTRATION [1]: 39.77 G/DL | MEAN CORPUSCULAR VOLUME [1]: 62.83 fL | MONOCYTE [1]: 0% | NEUTROPHIL [1]: 9.33% | NUCLEATED RED BLOOD CELLS [1]: 0.33 /100WBC | PLATELET COUNT [1]: 1167.67 x10E3/uL | ALANINE AMINOTRANSFERASE [1]: 54.67 u/L | ALBUMIN [1]: 4.17 G/DL | ALKALINE PHOSPHATASE [1]: 397.33 u/L | ASPARTATE AMINOTRANSFERASE [1]: 83.67 u/L | BLOOD UREA NITROGEN [1]: 12 mg/dL | CARBON DIOXIDE [1]: 34.33 mmol/L | CHLORIDE [1]: 101 MEQ/L | CHOLESTEROL [1]: 62.33 mg/dL | CREATINE PHOSPHOKINASE [1]: 196.67 u/L | CREATININE [1]: 0.21 mg/dL | GLUCOSE [1]: 146.67 mg/dL | LACTATE DEHYDROGENASE [1]: 207.67 u/L | LIPASE [1]: 11.67 u/L | PHOSPHORUS [1]: 11.63 mg/dL | POTASSIUM [1]: 6.48 MEQ/L | SODIUM [1]: 143.9 MEQ/L | TOTAL BILIRUBIN [1]: 0.23 mg/dL | TOTAL PROTEIN [1]: 6.03 G/DL | URIC ACID [1]: 1.2 mg/dL | ABSOLUTE BASOPHIL [2]: 0 CELLS/uL | ABSOLUTE EOSINOPHIL [2]: 0 CELLS/uL | ABSOLUTE LYMPHOCYTE [2]: 13562.33 CELLS/uL | ABSOLUTE MONOCYTE [2]: 210.33 CELLS/uL | ABSOLUTE SEGMENTED NEUTROPHIL [2]: 827.33 CELLS/uL | BASOPHIL [2]: 0% | EOSINOPHIL [2]: 0% | ERYTHROCYTE COUNT [2]: 5.82 x10E6/uL | HEMATOCRIT [2]: 37.17% | HEMOGLOBIN [2]: 14.57 G/DL | LEUKOCYTE COUNT [2]: 14.6 x10E3/uL | LYMPHOCYTE [2]: 93% | MEAN CORPUSCULAR HEMOGLOBIN [2]: 25.03 pg | MEAN CORPUSCULAR HEMOGLOBIN CONCENTRATION [2]: 39.2 G/DL | MEAN CORPUSCULAR VOLUME [2]: 63.87 fL | MONOCYTE [2]: 1.33% | NEUTROPHIL [2]: 5.67% | NUCLEATED RED BLOOD CELLS [2]: 0.33 /100WBC | PLATELET COUNT [2]: 1370 x10E3/uL | ALANINE AMINOTRANSFERASE [2]: 58.67 u/L | ALBUMIN [2]: 4.07 G/DL | ALKALINE PHOSPHATASE [2]: 398 u/L | ASPARTATE AMINOTRANSFERASE [2]: 92 u/L | BLOOD UREA NITROGEN [2]: 11 mg/dL | CARBON DIOXIDE [2]: 25.67 mmol/L | CHLORIDE [2]: 101.33 MEQ/L | CHOLESTEROL [2]: 64 mg/dL | CREATINE PHOSPHOKINASE [2]: 288.33 u/L | CREATININE [2]: 0.13 mg/dL | GLUCOSE [2]: 150.33 mg/dL | LACTATE DEHYDROGENASE [2]: 290.67 u/L | LIPASE [2]: 10.33 u/L | PHOSPHORUS [2]: 11.73 mg/dL | POTASSIUM [2]: 6.07 MEQ/L | SODIUM [2]: 143.23 MEQ/L | TOTAL BILIRUBIN [2]: 0.17 mg/dL | TOTAL PROTEIN [2]: 5.73 G/DL | URIC ACID [2]: 1.6 mg/dL | ABSOLUTE BASOPHIL [3]: 0 CELLS/uL | ABSOLUTE EOSINOPHIL [3]: 0 CELLS/uL | ABSOLUTE LYMPHOCYTE [3]: 9380.67 CELLS/uL | ABSOLUTE MONOCYTE [3]: 97.67 CELLS/uL | ABSOLUTE SEGMENTED NEUTROPHIL [3]: 455 CELLS/uL | BASOPHIL [3]: 0% | EOSINOPHIL [3]: 0% | ERYTHROCYTE COUNT [3]: 6.33 x10E6/uL | HEMATOCRIT [3]: 38.6% | HEMOGLOBIN [3]: 15.23 G/DL | LEUKOCYTE COUNT [3]: 9.93 x10E3/uL | LYMPHOCYTE [3]: 94.33% | MEAN CORPUSCULAR HEMOGLOBIN [3]: 24.1 pg | MEAN CORPUSCULAR HEMOGLOBIN CONCENTRATION [3]: 39.5 G/DL | MEAN CORPUSCULAR VOLUME [3]: 61 fL | MONOCYTE [3]: 1% | NEUTROPHIL [3]: 4.67% | NUCLEATED RED BLOOD CELLS [3]: 0.33 /100WBC | PLATELET COUNT [3]: 1256.67 x10E3/uL | ALANINE AMINOTRANSFERASE [3]: 64.67 u/L | ALBUMIN [3]: 4.53 G/DL | ALKALINE PHOSPHATASE [3]: 383 u/L | ASPARTATE AMINOTRANSFERASE [3]: 91 u/L | BLOOD UREA NITROGEN [3]: 12.67 mg/dL | CARBON DIOXIDE [3]: 33 mmol/L | CHLORIDE [3]: 101.67 MEQ/L | CHOLESTEROL [3]: 71.67 mg/dL | CREATINE PHOSPHOKINASE [3]: 315 u/L | CREATININE [3]: 0.22 mg/dL | GLUCOSE [3]: 140.33 mg/dL | LACTATE DEHYDROGENASE [3]: 131.33 u/L | LIPASE [3]: 9.67 u/L | PHOSPHORUS [3]: 9.5 mg/dL | POTASSIUM [3]: 5.03 MEQ/L | SODIUM [3]: 147.7 MEQ/L | TOTAL BILIRUBIN [3]: 0.17 mg/dL | TOTAL PROTEIN [3]: 6.6 G/DL | URIC ACID [3]: 0.77 mg/dL
